± gives the standard deviation of the averaged measurements.
Legend:
Danio rerio embryo [1] = test system: Danio rerio embryo
Procedure: (§1)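 Zebrafish embryos (UFZ-OBI strain) were exposed from 2 hpf for 48 h (2 dpf) or 96 h (4 dpf) at 28 °C; spontaneous tail coiling was scored at 25 hpf. Morphological features from automated image analysis (FishInspector), heart rate and locomotor response were fitted with drc models. Quantal endpoints were dichotomised at 2.5 SD from controls and fitted with a log-logistic model; heart rate, pigmentation and STC were normalised to the replicate control mean. Betamethasone was tested as betamethasone dipropionate, diflorasone as diflorasone diacetate.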

Danio rerio embryo [2] = conditions: exposure time: 4 dpf
Procedure: as §1

Danio rerio embryo [3] = experiment: EC50 Curvature_Increase; conditions: exposure time: 2 dpf
Procedure: as §1

Danio rerio embryo [4] = experiment: EC50 Body length_Decrease; conditions: exposure time: 2 dpf
Procedure: as §1

Danio rerio embryo [5] = experiment: EC50 Bladder size_Decrease; conditions: exposure time: 4 dpf
Procedure: as §1

Danio rerio embryo [6] = experiment: EC50 Pericard size_Increase; conditions: exposure time: 4 dpf
Procedure: as §1

Danio rerio embryo [7] = experiment: EC50 Yolk sac size_Increase; conditions: exposure time: 4 dpf
Procedure: as §1

Danio rerio embryo [8] = experiment: EC50 Eye-jaw distance_Decrease; conditions: exposure time: 4 dpf
Procedure: as §1

Danio rerio embryo [9] = experiment: EC50 Otolith-eye distance_Decrease; conditions: exposure time: 4 dpf
Procedure: as §1

Danio rerio embryo [10] = experiment: EC10 LMR dark; higher = less potent; conditions: exposure time: 4 dpf
Procedure: as §1

Danio rerio embryo [11] = experiment: EC20 LMR dark; higher = less potent; conditions: exposure time: 4 dpf
Procedure: as §1

Danio rerio embryo [12] = experiment: EC20 Any effect; higher = less potent; conditions: exposure time: 4 dpf
Procedure: as §1

Danio rerio embryo [13] = experiment: EC10 Any effect; higher = less potent; conditions: exposure time: 4 dpf
Procedure: as §1

Danio rerio embryo [14] = experiment: EC10 Curvature_Increase; higher = less potent; conditions: exposure time: 2 dpf
Procedure: as §1

Danio rerio embryo [15] = experiment: EC20 Curvature_Increase; higher = less potent; conditions: exposure time: 2 dpf
Procedure: as §1

Danio rerio embryo [16] = experiment: EC20 Body length_Decrease; higher = less potent; conditions: exposure time: 2 dpf
Procedure: as §1

Danio rerio embryo [17] = experiment: EC10 Body length_Decrease; higher = less potent; conditions: exposure time: 2 dpf
Procedure: as §1

Danio rerio embryo [18] = experiment: EC10 Bladder size_Decrease; higher = less potent; conditions: exposure time: 4 dpf
Procedure: as §1

Danio rerio embryo [19] = experiment: EC20 Bladder size_Decrease; higher = less potent; conditions: exposure time: 4 dpf
Procedure: as §1

Danio rerio embryo [20] = experiment: EC20 Yolk sac size_Increase; higher = less potent; conditions: exposure time: 4 dpf
Procedure: as §1

Danio rerio embryo [21] = experiment: EC20 Pericard size_Increase; higher = less potent; conditions: exposure time: 4 dpf
Procedure: as §1

Danio rerio embryo [22] = experiment: EC10 Yolk sac size_Increase; higher = less potent; conditions: exposure time: 4 dpf
Procedure: as §1

Danio rerio embryo [23] = experiment: EC10 Pericard size_Increase; higher = less potent; conditions: exposure time: 4 dpf
Procedure: as §1

Danio rerio embryo [24] = experiment: EC20 Eye-jaw distance_Decrease; higher = less potent; conditions: exposure time: 4 dpf
Procedure: as §1

Danio rerio embryo [25] = experiment: EC10 Eye-jaw distance_Decrease; higher = less potent; conditions: exposure time: 4 dpf
Procedure: as §1

Danio rerio embryo [26] = experiment: EC20 Otolith-eye distance_Decrease; higher = less potent; conditions: exposure time: 4 dpf
Procedure: as §1

Danio rerio embryo [27] = experiment: EC10 Otolith-eye distance_Decrease; higher = less potent; conditions: exposure time: 4 dpf
Procedure: as §1

Danio rerio embryo [28] = experiment: spontaneous tail coiling frequency (coils/min/embryo); higher = more spontaneous movement; conditions: 25 hpf
Procedure: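 Spontaneous tail coilings of zebrafish embryos exposed from 2 hpf were recorded at 24-25 hpf in 1-min videos and detected by a KNIME workflow from grey-value variance. Betamethasone was tested as the dipropionate, diflorasone as the diacetate.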

CCCNCC(O)COc1ccccc1C(=O)CCc1ccccc1 (stereo not drawn) [Propafenone] was tested, and the “EC50 Any effect” value (Danio rerio embryo [1]; exposure time: 4 dpf) was 20.6 µM, the “EC50 LMR ligth increase” value (Danio rerio embryo [1]; exposure time: 4 dpf) was 19.6 µM and the “EC50 Pigmentation increase” value (Danio rerio embryo [1]; exposure time: 4 dpf) was 34.7 µM. The “EC50 STC decrease” value (Danio rerio embryo [1]; exposure time: 25 h) was 47.5 µM, the “EC50 LMR dark” value (Danio rerio embryo [2]) was 11.2 µM and the “EC50 Curvature Increase” value (Danio rerio embryo [3]) was 131 µM. The “EC50 Body length Decrease” value (Danio rerio embryo [4]) was 79.5 µM, the “EC50 Bladder size Decrease” value (Danio rerio embryo [5]) was 7.8 µM and the “EC50 Pericard size Increase” value (Danio rerio embryo [6]) was 20.6 µM. For the same molecule, the “EC50 Yolk sac size Increase” value (Danio rerio embryo [7]) was 20.5 µM, the “EC50 Eye-jaw distance Decrease” value (Danio rerio embryo [8]) was 20.6 µM and the “EC50 Otolith-eye distance Decrease” value (Danio rerio embryo [9]) was 35.5 µM. The “EC10 LMR dark” value (Danio rerio embryo [10]) was 2.43 µM, the “EC20 LMR dark” value (Danio rerio embryo [11]) was 4.28 µM and the “EC20 Any effect” value (Danio rerio embryo [12]) was 18.9 µM. For the same molecule, the “EC10 Any effect” value (Danio rerio embryo [13]) was 17.9 µM, the “EC10 Curvature Increase” value (Danio rerio embryo [14]) was 27.6 µM and the “EC20 Curvature Increase” value (Danio rerio embryo [15]) was 49 µM. For the same molecule, the “EC20 Body length Decrease” value (Danio rerio embryo [16]) was 34.1 µM, the “EC10 Body length Decrease” value (Danio rerio embryo [17]) was 20.8 µM and the “EC10 Bladder size Decrease” value (Danio rerio embryo [18]) was 6.71 µM. The “EC20 Bladder size Decrease” value (Danio rerio embryo [19]) was 7.09 µM, the “EC20 Yolk sac size Increase” value (Danio rerio embryo [20]) was 18.4 µM and the “EC20 Pericard size Increase” value (Danio rerio embryo [21]) was 18.8 µM. For the same molecule, the “EC10 Yolk sac size Increase” value (Danio rerio embryo [22]) was 17.3 µM, the “EC10 Pericard size Increase” value (Danio rerio embryo [23]) was 17.8 µM and the “EC20 Eye-jaw distance Decrease” value (Danio rerio embryo [24]) was 18.8 µM. The “EC10 Eye-jaw distance Decrease” value (Danio rerio embryo [25]) was 17.8 µM, the “EC20 Otolith-eye distance Decrease” value (Danio rerio embryo [26]) was 33.9 µM and the “EC10 Otolith-eye distance Decrease” value (Danio rerio embryo [27]) was 33 µM. The “spontaneous tail coiling frequency” value (Danio rerio embryo [28]; 8.8 µM) was 1.68, the “spontaneous tail coiling frequency” value (Danio rerio embryo [28]; 13.2 µM) was 1.86 and the “spontaneous tail coiling frequency” value (Danio rerio embryo [28]; 19.8 µM) was 1.81 ± 0.55. For the same molecule, the “spontaneous tail coiling frequency” value (Danio rerio embryo [28]; 29.6 µM) was 0.98, the “spontaneous tail coiling frequency” value (Danio rerio embryo [28]; 44.5 µM) was 1.23 ± 1.2 and the “spontaneous tail coiling frequency” value (Danio rerio embryo [28]; 66.7 µM) was 1. The “spontaneous tail coiling frequency” value (Danio rerio embryo [28]; 100 µM) was 0.422 ± 0.49 and the “spontaneous tail coiling frequency” value (Danio rerio embryo [28]; 142.9 µM) was 0.49.

Source: the supplement of paper PMC9013687
